Test results as given in ChEMBL document CHEMBL1201862, “PubChem BioAssay data set” (2004).
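Method: 48-hour compound exposure of cells in 96-well plates, five concentrations, linear interpolation of endpoints. Abbreviation: GI50, concentration required for 50% inhibition of growth.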 Activity calls are given as the source filed them. Rule as the data show it: active = GI50 up to about 1.1 µM and inactive = higher.

Legend:
Test in all cases: NCI anticancer screen, dose series, 48 h
786-0 = system: 786-0
RXF 393 = system: RXF 393
SK-OV-3 = system: SK-OV-3
SK-MEL-5 = system: SK-MEL-5
SF-268 = system: SF-268
SF-295 = system: SF-295
OVCAR-5 = system: OVCAR-5
TK-10 = system: TK-10
CCRF-CEM = system: CCRF-CEM
HT-29 = system: HT-29
SK-MEL-2 = system: SK-MEL-2
NCI-H23 = system: NCI-H23
SR = system: SR
K562 = system: K562
UO-31 = system: UO-31
SF-539 = system: SF-539
COLO 205 = system: COLO 205
SNB-19 = system: SNB-19
MDA-MB-231 = system: MDA-MB-231

Row | SMILES | GI50 (786-0) | GI50 (RXF 393) | GI50 (SK-OV-3) | GI50 (SK-MEL-5) | GI50 (SF-268) | GI50 (SF-295) | GI50 (OVCAR-5) | GI50 (TK-10) | GI50 (CCRF-CEM) | GI50 (HT-29) | GI50 (SK-MEL-2) | GI50 (NCI-H23) | GI50 (SR) | GI50 (K562) | GI50 (UO-31) | GI50 (SF-539) | GI50 (COLO 205) | GI50 (SNB-19) | GI50 (MDA-MB-231)
1 | CSc1ccc(/C=C2\CN(C)C/C(=C\c3ccc(SC)cc3)C2=O)cc1 | 54.1 µM (inactive) | 22 µM (inactive) | 30.8 µM (inactive) | 48.8 µM (inactive) | 29.2 µM (inactive) | 21.1 µM (inactive) | > 100 µM (inactive) | 56.6 µM (inactive) | 23.1 µM (inactive) | 15.2 µM (inactive) | 39.4 µM (inactive) | 4.52 µM (inactive) | 7.57 µM (inactive) | 22.2 µM (inactive) | > 100 µM (inactive) | 20 µM (inactive) | 21.2 µM (inactive) |  | 
2 | CC(=O)C1=C(O)C(N)C2Cc3c(c(O)c4c(O)c(C)ccc4c3C)C(=O)C2(O)C1=O (stereo unspecified) | 2.58 µM (inactive) | 4.43 µM (inactive) | 3.53 µM (inactive) | 1.19 µM (inactive) | 1.18 µM (inactive) | 1.26 µM (inactive) | 4.46 µM (inactive) | 1.93 µM (inactive) | 3.24 µM (inactive) | 2.23 µM (inactive) | 3.56 µM (inactive) | 1.75 µM (inactive) | 1.64 µM (inactive) | 1.87 µM (inactive) | 3.18 µM (inactive) | 1.35 µM (inactive) | 1.64 µM (inactive) | 2.34 µM (inactive) | 
3 | COc1cc(C2CC(C)(Nc3ccccc3)Oc3cc4c(cc32)OCO4)cc(OC)c1OC (stereo unspecified) | 0.298 µM (active) | 0.222 µM (active) | 0.394 µM (active) | 0.153 µM (active) | 4.58 µM (inactive) | 0.199 µM (active) | 2.71 µM (inactive) | 1.88 µM (inactive) | 0.124 µM (active) | 0.182 µM (active) | 0.303 µM (active) | 0.301 µM (active) | 0.239 µM (active) | 0.0933 µM (active) | 1.2 µM (inactive) | 0.171 µM (active) | 0.839 µM (active) | 0.736 µM (active) | 0.853 µM (active)
4 | CCOP(=O)(Nc1ccc(-c2ccccc2)cc1)OCC | > 100 µM (inactive) | 34.6 µM (inactive) | > 100 µM (inactive) | 90.2 µM (inactive) | 74.6 µM (inactive) | > 100 µM (inactive) | 77.8 µM (inactive) | > 100 µM (inactive) |  | 75.7 µM (inactive) | > 100 µM (inactive) | > 100 µM (inactive) |  | 74.1 µM (inactive) | 57.9 µM (inactive) |  | > 100 µM (inactive) | > 100 µM (inactive) | > 100 µM (inactive)
5 | CCOC(=O)c1nc2c3c(ncn2n1)Oc1c(c(-c2ccccc2)nn1-c1ccccc1)C3c1ccc(OC)c(OC)c1 (stereo unspecified) | 31 µM (inactive) | 23.4 µM (inactive) | 92.9 µM (inactive) | 78.9 µM (inactive) | 15.3 µM (inactive) | 23.8 µM (inactive) | > 100 µM (inactive) | > 100 µM (inactive) | > 100 µM (inactive) | > 100 µM (inactive) | > 100 µM (inactive) | > 100 µM (inactive) | 51.8 µM (inactive) | 7.24 µM (inactive) | > 100 µM (inactive) | 11.9 µM (inactive) | > 100 µM (inactive) | 24.3 µM (inactive) | 37.2 µM (inactive)
6 | CN(CCN(C)C(=O)CCn1ccc(=O)[nH]c1=O)C(=O)CCn1ccc(=O)[nH]c1=O | > 100 µM (inactive) | > 100 µM (inactive) |  | > 100 µM (inactive) | > 100 µM (inactive) | > 100 µM (inactive) | > 100 µM (inactive) | > 100 µM (inactive) | > 100 µM (inactive) | > 100 µM (inactive) | > 100 µM (inactive) | > 100 µM (inactive) | > 100 µM (inactive) | > 100 µM (inactive) | > 100 µM (inactive) | > 100 µM (inactive) | > 100 µM (inactive) | > 100 µM (inactive) | 
7 | O=C(CC1(O)C(=O)Nc2ccc([N+](=O)[O-])cc21)c1ccc2ccccc2c1 (stereo unspecified) | > 100 µM (inactive) | > 100 µM (inactive) | > 100 µM (inactive) |  | > 100 µM (inactive) | > 100 µM (inactive) | > 100 µM (inactive) | > 100 µM (inactive) | > 100 µM (inactive) | > 100 µM (inactive) | > 100 µM (inactive) | > 100 µM (inactive) | > 100 µM (inactive) | > 100 µM (inactive) | > 100 µM (inactive) | > 100 µM (inactive) | > 100 µM (inactive) | > 100 µM (inactive) | 
8 | CCOC(=O)/C=C1\Nc2ccccc2-n2nnnc21 | > 100 µM (inactive) | > 100 µM (inactive) | > 100 µM (inactive) | > 100 µM (inactive) | > 100 µM (inactive) | > 100 µM (inactive) | > 100 µM (inactive) | > 100 µM (inactive) | > 100 µM (inactive) | 95.5 µM (inactive) | > 100 µM (inactive) | > 100 µM (inactive) | > 100 µM (inactive) | > 100 µM (inactive) | > 100 µM (inactive) | > 100 µM (inactive) | > 100 µM (inactive) | > 100 µM (inactive) | 
